According to paper PMC8632988, “Inhibition of SYK and cSrc kinases can protect bone and cartilage in preclinical models of osteoarthritis and rheumatoid arthritis” (Scientific Reports, 2021):
Where “and” joins values, the source holds several entries; their conditions need not be identical. Equal entries are not always repeated. Where two headings read alike, the source gives them in different places.

Columns and labels:
ARK5/NUAK1 = target: T1, ARK5/NUAK1 (Homo sapiens, UniProt O60285); assay: Kinase selectivity profile assay; type: biochemical
T1 construct: purchased Reaction Biology Corporation (assay service)
T1 sequence (O60285 whole entry): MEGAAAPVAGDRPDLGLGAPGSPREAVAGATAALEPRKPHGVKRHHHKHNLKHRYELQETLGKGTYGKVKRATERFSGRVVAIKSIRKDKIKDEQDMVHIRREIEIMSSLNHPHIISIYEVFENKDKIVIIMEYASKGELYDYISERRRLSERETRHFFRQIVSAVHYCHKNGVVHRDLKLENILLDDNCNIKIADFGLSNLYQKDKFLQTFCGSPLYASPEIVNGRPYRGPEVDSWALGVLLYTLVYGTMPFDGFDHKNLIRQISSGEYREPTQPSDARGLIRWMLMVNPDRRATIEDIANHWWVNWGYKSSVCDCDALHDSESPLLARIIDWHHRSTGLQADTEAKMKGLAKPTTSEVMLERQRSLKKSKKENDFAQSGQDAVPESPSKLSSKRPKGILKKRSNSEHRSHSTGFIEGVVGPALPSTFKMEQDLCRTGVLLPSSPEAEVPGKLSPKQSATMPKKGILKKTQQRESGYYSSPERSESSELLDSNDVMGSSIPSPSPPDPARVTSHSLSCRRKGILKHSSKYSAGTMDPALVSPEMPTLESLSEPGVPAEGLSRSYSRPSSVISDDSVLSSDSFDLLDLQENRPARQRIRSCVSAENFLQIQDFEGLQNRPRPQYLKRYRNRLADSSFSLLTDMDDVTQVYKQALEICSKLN
Text: (§1) Kinase activity data was expressed as the percent remaining kinase activity in test samples compared to vehicle (dimethyl sulfoxide) reactions based on the radioactivity of reaction products (see Table S2). Experiment was replicated twice.

BMX/ETK = target: T2, BMX/ETK (Homo sapiens, UniProt P51813); assay: Kinase selectivity profile assay; type: biochemical
T2 construct: purchased Reaction Biology Corporation (assay service)
T2 sequence (P51813 whole entry): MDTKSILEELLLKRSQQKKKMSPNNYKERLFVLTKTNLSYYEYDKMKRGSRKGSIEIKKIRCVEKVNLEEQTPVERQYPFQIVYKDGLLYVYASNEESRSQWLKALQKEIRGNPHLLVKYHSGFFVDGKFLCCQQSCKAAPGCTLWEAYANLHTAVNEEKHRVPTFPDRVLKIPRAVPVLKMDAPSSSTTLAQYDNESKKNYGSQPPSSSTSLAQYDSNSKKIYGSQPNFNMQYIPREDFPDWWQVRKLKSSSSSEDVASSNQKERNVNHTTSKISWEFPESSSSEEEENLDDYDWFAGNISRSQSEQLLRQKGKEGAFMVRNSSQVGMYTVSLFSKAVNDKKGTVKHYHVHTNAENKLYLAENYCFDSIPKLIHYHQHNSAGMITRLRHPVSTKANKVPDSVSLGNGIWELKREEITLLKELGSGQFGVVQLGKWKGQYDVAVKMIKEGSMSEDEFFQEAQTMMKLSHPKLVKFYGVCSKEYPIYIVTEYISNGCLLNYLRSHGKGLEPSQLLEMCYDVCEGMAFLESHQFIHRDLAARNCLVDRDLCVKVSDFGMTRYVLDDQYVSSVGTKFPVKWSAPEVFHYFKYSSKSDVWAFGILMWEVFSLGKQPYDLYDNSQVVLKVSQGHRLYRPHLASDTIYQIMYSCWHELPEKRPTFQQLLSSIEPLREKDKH
Text: as §1

CAMK1g = target: T3, CAMK1g (Homo sapiens, UniProt Q96NX5); assay: Kinase selectivity profile assay; type: biochemical; conditions: 500 nM; relative to DMSO; read-out: Residual enzymatic activity
T3 construct: purchased Reaction Biology Corporation
Text: as §1

CDK9/cyclin K = target: T4, CDK9/cyclin K (Homo sapiens, UniProt P50750); assay: Kinase selectivity profile assay; type: biochemical; conditions: 500 nM; relative to DMSO; read-out: Residual enzymatic activity
T4 construct: purchased Reaction Biology Corporation
Text: as §1

EGFR = target: T5, EGFR (Homo sapiens, UniProt P00533); assay: Kinase selectivity profile assay; type: biochemical; conditions: 500 nM, relative to DMSO
T5 construct: purchased Reaction Biology Corporation
T5 sequence (P00533 25-1210): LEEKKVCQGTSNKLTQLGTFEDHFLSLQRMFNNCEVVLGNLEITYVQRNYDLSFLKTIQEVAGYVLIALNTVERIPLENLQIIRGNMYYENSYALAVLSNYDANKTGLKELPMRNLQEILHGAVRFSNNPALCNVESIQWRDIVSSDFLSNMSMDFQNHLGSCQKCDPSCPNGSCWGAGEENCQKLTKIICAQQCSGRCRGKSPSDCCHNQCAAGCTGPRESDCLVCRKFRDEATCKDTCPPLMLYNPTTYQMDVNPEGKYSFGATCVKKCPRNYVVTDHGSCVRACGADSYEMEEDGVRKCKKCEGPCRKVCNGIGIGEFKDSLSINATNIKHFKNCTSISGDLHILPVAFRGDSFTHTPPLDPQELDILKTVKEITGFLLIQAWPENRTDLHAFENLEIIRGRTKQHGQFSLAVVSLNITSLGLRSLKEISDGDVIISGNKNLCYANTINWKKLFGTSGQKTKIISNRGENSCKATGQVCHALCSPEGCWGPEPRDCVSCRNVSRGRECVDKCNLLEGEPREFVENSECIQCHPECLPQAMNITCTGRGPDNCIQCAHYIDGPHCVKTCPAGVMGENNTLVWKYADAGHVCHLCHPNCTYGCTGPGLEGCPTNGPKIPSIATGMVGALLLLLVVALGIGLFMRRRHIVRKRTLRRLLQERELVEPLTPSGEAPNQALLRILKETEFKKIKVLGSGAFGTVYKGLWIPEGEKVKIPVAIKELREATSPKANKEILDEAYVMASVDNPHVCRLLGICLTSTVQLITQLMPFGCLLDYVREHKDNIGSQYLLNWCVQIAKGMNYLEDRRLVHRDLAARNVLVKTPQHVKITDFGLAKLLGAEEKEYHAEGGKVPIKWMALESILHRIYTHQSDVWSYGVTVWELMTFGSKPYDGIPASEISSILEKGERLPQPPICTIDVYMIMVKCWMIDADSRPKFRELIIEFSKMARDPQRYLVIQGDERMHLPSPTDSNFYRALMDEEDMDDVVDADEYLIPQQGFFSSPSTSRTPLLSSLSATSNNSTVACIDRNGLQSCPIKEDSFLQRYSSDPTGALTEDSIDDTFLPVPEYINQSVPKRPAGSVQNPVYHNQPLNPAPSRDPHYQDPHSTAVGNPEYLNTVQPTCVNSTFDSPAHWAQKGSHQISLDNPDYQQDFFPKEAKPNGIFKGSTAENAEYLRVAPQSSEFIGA
Text: as §1

EPHA2 = target: T6, EPHA2 (Homo sapiens, UniProt P29317); assay: Kinase selectivity profile assay; type: biochemical; conditions: 500 nM, relative to DMSO
T6 construct: purchased Reaction Biology Corporation
T6 sequence (P29317 24-976): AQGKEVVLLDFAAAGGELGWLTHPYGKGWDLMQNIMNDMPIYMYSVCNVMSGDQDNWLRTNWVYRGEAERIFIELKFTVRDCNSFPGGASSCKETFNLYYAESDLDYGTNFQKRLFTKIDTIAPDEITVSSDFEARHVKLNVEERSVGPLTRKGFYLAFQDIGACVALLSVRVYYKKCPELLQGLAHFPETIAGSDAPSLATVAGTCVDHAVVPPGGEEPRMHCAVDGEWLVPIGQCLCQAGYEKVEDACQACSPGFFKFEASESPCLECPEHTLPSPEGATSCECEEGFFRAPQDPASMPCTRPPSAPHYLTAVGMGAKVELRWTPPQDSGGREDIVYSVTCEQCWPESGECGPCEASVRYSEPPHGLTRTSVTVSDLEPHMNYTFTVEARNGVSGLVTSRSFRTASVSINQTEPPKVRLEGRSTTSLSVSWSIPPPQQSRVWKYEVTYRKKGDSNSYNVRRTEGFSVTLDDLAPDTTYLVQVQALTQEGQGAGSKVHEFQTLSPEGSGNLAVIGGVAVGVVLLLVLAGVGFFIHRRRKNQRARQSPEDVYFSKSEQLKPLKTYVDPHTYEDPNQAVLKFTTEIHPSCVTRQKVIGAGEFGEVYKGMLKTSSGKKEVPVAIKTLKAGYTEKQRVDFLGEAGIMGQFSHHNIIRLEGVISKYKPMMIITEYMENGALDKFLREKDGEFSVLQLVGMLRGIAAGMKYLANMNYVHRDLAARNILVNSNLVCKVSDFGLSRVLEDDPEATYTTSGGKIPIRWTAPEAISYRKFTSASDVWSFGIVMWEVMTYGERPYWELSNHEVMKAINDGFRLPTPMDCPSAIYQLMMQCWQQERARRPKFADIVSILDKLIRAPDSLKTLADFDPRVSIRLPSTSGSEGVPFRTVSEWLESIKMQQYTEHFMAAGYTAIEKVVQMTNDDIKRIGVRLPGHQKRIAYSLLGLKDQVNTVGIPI
Text: as §1

ITK = target: T7, ITK (Homo sapiens, UniProt Q08881); assay: Kinase selectivity profile assay; type: biochemical; conditions: 500 nM; relative to DMSO; read-out: Residual enzymatic activity
T7 construct: purchased Reaction Biology Corporation
Text: as §1

MARK1 = target: T8, MARK1 (Homo sapiens, UniProt Q9P0L2); assay: Kinase selectivity profile assay; type: biochemical; conditions: 500 nM; relative to DMSO; read-out: Residual enzymatic activity
T8 construct: purchased Reaction Biology Corporation
Text: as §1

MARK3 = target: T9, MARK3 (Homo sapiens, UniProt P27448); assay: Kinase selectivity profile assay; type: biochemical; conditions: 500 nM; relative to DMSO; read-out: Residual enzymatic activity
T9 construct: purchased Reaction Biology Corporation
Text: as §1

NEK11 = target: T10, NEK11 (Homo sapiens, UniProt Q8NG66); assay: Kinase selectivity profile assay; type: biochemical
T10 construct: purchased Reaction Biology Corporation (Malvern, PA, USA)
T10 sequence (Q8NG66 whole entry): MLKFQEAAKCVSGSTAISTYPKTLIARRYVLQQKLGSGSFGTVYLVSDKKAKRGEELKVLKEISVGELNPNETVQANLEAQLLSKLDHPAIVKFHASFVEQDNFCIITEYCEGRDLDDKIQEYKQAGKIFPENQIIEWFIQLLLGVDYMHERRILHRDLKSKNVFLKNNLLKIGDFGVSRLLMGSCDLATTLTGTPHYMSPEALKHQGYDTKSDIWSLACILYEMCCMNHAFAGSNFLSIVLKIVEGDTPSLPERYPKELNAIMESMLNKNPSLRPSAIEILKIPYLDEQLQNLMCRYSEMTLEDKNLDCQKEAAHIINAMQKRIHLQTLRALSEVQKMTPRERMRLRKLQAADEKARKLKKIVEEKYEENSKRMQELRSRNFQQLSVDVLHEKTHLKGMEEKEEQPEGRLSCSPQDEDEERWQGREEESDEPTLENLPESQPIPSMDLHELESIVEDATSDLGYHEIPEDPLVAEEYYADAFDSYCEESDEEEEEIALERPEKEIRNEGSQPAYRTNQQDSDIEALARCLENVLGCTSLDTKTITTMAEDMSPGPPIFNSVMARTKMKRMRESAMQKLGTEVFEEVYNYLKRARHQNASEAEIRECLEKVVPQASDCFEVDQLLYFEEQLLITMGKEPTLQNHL
Text: as §1

PAK2 = target: T11, PAK2 (Homo sapiens, UniProt Q13177); assay: Kinase selectivity profile assay; type: biochemical; conditions: 500 nM; relative to DMSO; read-out: Residual enzymatic activity
T11 construct: purchased Reaction Biology Corporation
T11 sequence (Q13177 whole entry): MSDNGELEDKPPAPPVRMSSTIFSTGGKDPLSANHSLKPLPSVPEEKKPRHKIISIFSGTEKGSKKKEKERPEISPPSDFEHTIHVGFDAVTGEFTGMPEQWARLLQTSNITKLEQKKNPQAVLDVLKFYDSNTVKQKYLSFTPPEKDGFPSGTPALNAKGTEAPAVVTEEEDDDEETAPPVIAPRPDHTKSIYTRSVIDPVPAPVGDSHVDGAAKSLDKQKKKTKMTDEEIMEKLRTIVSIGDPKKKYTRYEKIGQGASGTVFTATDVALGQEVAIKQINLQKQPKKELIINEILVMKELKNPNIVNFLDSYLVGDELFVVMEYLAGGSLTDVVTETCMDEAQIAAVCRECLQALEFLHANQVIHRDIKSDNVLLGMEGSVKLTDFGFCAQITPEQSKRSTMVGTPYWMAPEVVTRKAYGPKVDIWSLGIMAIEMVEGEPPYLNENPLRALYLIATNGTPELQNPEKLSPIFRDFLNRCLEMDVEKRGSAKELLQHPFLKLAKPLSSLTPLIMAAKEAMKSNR
Text: as §1

ZIPK/DAPK3 = target: T12, ZIPK/DAPK3 (Homo sapiens, UniProt O43293); assay: Kinase selectivity profile assay; type: biochemical; conditions: 500 nM; relative to DMSO; read-out: Residual enzymatic activity
T12 construct: purchased Reaction Biology Corporation
Text: as §1

[1] = Pharmacokinetics after single oral administration to rats; type: in vivo, rat; conditions: male Wistar rats
Procedure: Experiments were performed at ChemPartner, Shanghai, China and approved by Institutional Ethics Committee (IEC) of ChemPartner. Male Wistar 10–12 weeks old rats with body weights of 185–220 g and male New Zealand rabbits with body weights of 2.0–2.3 kg were purchased from Shanghai SLAC Laboratory Animal Co., Ltd. MT-SYK-03 was administered to the three groups of rats (six rats per group) via oral gavage at 10 mL/kg concentration, and in rabbits 5 mL/kg concentration. Blood samples were kept on ice and centrifuged (2000 g, 4 ℃, 5 min) within 15 min post sampling.

[2] = 500 nM, relative to DMSO, read-out: Residual enzymatic activity
[3] = 10-dose mode, threefold serial dilution from 10 μM
[4] = read-out: Residual enzymatic activity
[5] = Table S6, 100 mg/kg PO, plasma, individual Rat#1-6
[6] = Table S7, 100 mg/kg PO, plasma, individual Rat#7-12
[7] = Table S8, 200 mg/kg PO, plasma, individual Rat#13-18

For `COc1cc(Nc2ncnc(Nc3cc4c(cn3)NC(=O)C(C)(C)O4)n2)cc(OC)c1OC` [MT-SYK-03], the remaining activity at 0.5 µM (ARK5/NUAK1; [2]) was 49.7%, the IC50 (ARK5/NUAK1; [3]) was 376 nM and the remaining activity at 0.5 µM (BMX/ETK; [2]) was 18%. It also gave an IC50 (BMX/ETK; [3]) of 199 nM, a remaining activity at 0.5 µM (CAMK1g) of 99.2% and a remaining activity at 0.5 µM (CDK9/cyclin K) of 95.7%. It also gave a Residual enzymatic activity (EGFR) of 59.6%, a remaining activity at 0.5 µM (EGFR; [4]) greater than 54% and a Residual enzymatic activity (EPHA2) of 56.3%. For the same compound, the remaining activity at 0.5 µM (EPHA2; [4]) was greater than 54%, the remaining activity at 0.5 µM (ITK) was 102% and the remaining activity at 0.5 µM (MARK1) was 95.7%. The remaining activity at 0.5 µM (MARK3) was 97.1%, the remaining activity at 0.5 µM (NEK11; [2]) was 35.9% and the IC50 (NEK11; [3]) was 26.1 nM. The remaining activity at 0.5 µM (PAK2) was 94.1%, the remaining activity at 0.5 µM (ZIPK/DAPK3) was 98.4% and the Plasma concentration ([1]; Table S6, 100 mg/kg PO, 0.25 h, individual Rat#1-6) was 257 ng/mL and 127 ng/mL and 313 ng/mL and 251 ng/mL and 240 ng/mL and 283 ng/mL. For the same compound, the Plasma concentration ([1]; Table S6, 100 mg/kg PO, 0.5 h, individual Rat#1-6) was 331 ng/mL and 166 ng/mL and 419 ng/mL and 280 ng/mL and 345 ng/mL and 375 ng/mL, the Plasma concentration ([1]; Table S6, 100 mg/kg PO, 1 h, individual Rat#1-6) was 470 ng/mL and 220 ng/mL and 487 ng/mL and 367 ng/mL and 392 ng/mL and 483 ng/mL and the Plasma concentration ([1]; Table S6, 100 mg/kg PO, 2 h, individual Rat#1-6) was 529 ng/mL and 209 ng/mL and 501 ng/mL and 372 ng/mL and 256 ng/mL and 359 ng/mL. For the same compound, the Plasma concentration ([1]; Table S6, 100 mg/kg PO, 4 h, individual Rat#1-6) was 196 ng/mL and 78.0 ng/mL and 171 ng/mL and 170 ng/mL and 226 ng/mL and 206 ng/mL, the Plasma concentration ([1]; Table S6, 100 mg/kg PO, 8 h, individual Rat#1-6) was 47.2 ng/mL and 31.2 ng/mL and 92.6 ng/mL and 41.6 ng/mL and 88.8 ng/mL and 43.5 ng/mL and the Plasma concentration ([1]; Table S6, 100 mg/kg PO, 24 h, individual Rat#1-6) was 0.818 ng/mL and BQL (2×) and 17.7 ng/mL and 1.57 ng/mL and 16.5 ng/mL. The Plasma concentration ([1]; Table S6, 100 mg/kg PO, 48 h, individual Rat#1-6) was “BQL (4×) and 1.55 ng/mL”, the AUCINF [1, 5] was 2434 ng·h/mL and 971 ng·h/mL and 3948 ng·h/mL and 2253 ng·h/mL and 2452 ng·h/mL and 2451 ng·h/mL and the AUClast [1, 5] was 2423 ng·h/mL and 869 ng·h/mL and 3933 ng·h/mL and 2069 ng·h/mL and 2446 ng·h/mL and 2297 ng·h/mL. For the same compound, the Cmax [1, 5] was 529 ng/mL and 220 ng/mL and 501 ng/mL and 372 ng/mL and 392 ng/mL and 483 ng/mL, the “Terminal t1/2” value [1, 5] was 7.83 h and 2.28 h and 6.60 h and 7.22 h and 2.78 h and 6.45 h and the Plasma concentration ([1]; Table S7, 100 mg/kg PO, 8 h, individual Rat#7-12) was 87.7 ng/mL and 152 ng/mL and 64.3 ng/mL and 178 ng/mL and 89.2 ng/mL and 82.6 ng/mL. For the same compound, the Plasma concentration ([1]; Table S7, 100 mg/kg PO, 24 h, individual Rat#7-12) was 32.8 ng/mL and 4.94 ng/mL and 6.04 ng/mL and 1.11 ng/mL and 1.56 ng/mL, the Plasma concentration ([1]; Table S7, 100 mg/kg PO, 48 h, individual Rat#7-12) was “BQL” and the AUCINF [1, 6] was 4850 ng·h/mL and 3276 ng·h/mL and 4883 ng·h/mL and 4456 ng·h/mL and 3930 ng·h/mL. For the same compound, the AUClast [1, 6] was 4843 ng·h/mL and 3238 ng·h/mL and 4878 ng·h/mL and 4452 ng·h/mL and 3910 ng·h/mL, the Cmax [1, 6] was 1030 ng/mL and 770 ng/mL and 859 ng/mL and 876 ng/mL and 824 ng/mL and the “Terminal t1/2” value [1, 6] was 5.58 h and 4.86 h and 3.71 h and 2.36 h and 2.34 h and 5.52 h. For the same compound, the Plasma concentration ([1]; Table S8, 200 mg/kg PO, 48 h, individual Rat#13-18) was “BQL”, the AUCINF [1, 7] was 6063 ng·h/mL and 6845 ng·h/mL and 7115 ng·h/mL and 6299 ng·h/mL and 10096 ng·h/mL and the AUClast [1, 7] was 6055 ng·h/mL and 6836 ng·h/mL and 7107 ng·h/mL and 6076 ng·h/mL and 10087 ng·h/mL. The Cmax [1, 7] was 1430 ng/mL and 1360 ng/mL and 1370 ng/mL and 998 ng/mL and 1320 ng/mL, the “Terminal t1/2” value [1, 7] was 6.31 h and 5.70 h and 2.52 h and 2.40 h and 8.67 h and 4.91 h and the concentration at 0.25 h ([1]; male, Wistar, rat, plasma, oral, 100 mg/kg, Table S6, 100 mg/kg PO, 0.25 h, mean of Rat#1-6, read-out: Plasma concentration, Mean) was 245 ng/mL. The concentration at 0.5 h ([1]; male, Wistar, rat, plasma, oral, 100 mg/kg, Table S6, 100 mg/kg PO, 0.5 h, mean of Rat#1-6, read-out: Plasma concentration, Mean) was 319 ng/mL, the concentration at 1 h ([1]; male, Wistar, rat, plasma, oral, 100 mg/kg, Table S6, 100 mg/kg PO, 1 h, mean of Rat#1-6, read-out: Plasma concentration, Mean) was 403 ng/mL and the concentration at 2 h ([1]; male, Wistar, rat, plasma, oral, 100 mg/kg, Table S6, 100 mg/kg PO, 2 h, mean of Rat#1-6, read-out: Plasma concentration, Mean) was 371 ng/mL. It also gave a concentration at 4 h ([1]; male, Wistar, rat, plasma, oral, 100 mg/kg, Table S6, 100 mg/kg PO, 4 h, mean of Rat#1-6) of 175 ng/mL, a concentration at 8 h ([1]; male, Wistar, rat, plasma, oral, 100 mg/kg, Table S6, 100 mg/kg PO, 8 h, mean of Rat#1-6) of 57.5 ng/mL and a concentration at 24 h ([1]; male, Wistar, rat, plasma, oral, 100 mg/kg, Table S6, 100 mg/kg PO, 24 h, mean of Rat#1-6) of 9.15 ng/mL. It also gave a concentration at 48 h ([1]; male, Wistar, rat, plasma, oral, 100 mg/kg, Table S6, 100 mg/kg PO, 48 h, individual Rat#1-6, read-out: Plasma concentration) of 0.984 ng/mL, a concentration at 48 h ([1]; male, Wistar, rat, plasma, oral, 100 mg/kg, Table S6, 100 mg/kg PO, 48 h, mean of Rat#1-6, read-out: Plasma concentration, Mean) of 1.27 ng/mL and a concentration at 0.25 h ([1]; male, Wistar, rat, plasma, oral, 100 mg/kg, Table S7, 100 mg/kg PO, 0.25 h, individual Rat#7-12, read-out: Plasma concentration) of 400 ng/mL. For the same compound, the concentration at 0.25 h ([1]; male, Wistar, rat, plasma, oral, 100 mg/kg, Table S7, 100 mg/kg PO, 0.25 h, mean of Rat#7-12, read-out: Plasma concentration, Mean) was 415 ng/mL, the concentration at 0.5 h ([1]; male, Wistar, rat, plasma, oral, 100 mg/kg, Table S7, 100 mg/kg PO, 0.5 h, individual Rat#7-12, read-out: Plasma concentration) was 716 ng/mL and the concentration at 0.5 h ([1]; male, Wistar, rat, plasma, oral, 100 mg/kg, Table S7, 100 mg/kg PO, 0.5 h, mean of Rat#7-12, read-out: Plasma concentration, Mean) was 679 ng/mL. It also gave a concentration at 1 h ([1]; male, Wistar, rat, plasma, oral, 100 mg/kg, Table S7, 100 mg/kg PO, 1 h, individual Rat#7-12, read-out: Plasma concentration) of 830 ng/mL, a concentration at 1 h ([1]; male, Wistar, rat, plasma, oral, 100 mg/kg, Table S7, 100 mg/kg PO, 1 h, mean of Rat#7-12, read-out: Plasma concentration, Mean) of 870 ng/mL and a concentration at 2 h ([1]; male, Wistar, rat, plasma, oral, 100 mg/kg, Table S7, 100 mg/kg PO, 2 h, individual Rat#7-12, read-out: Plasma concentration) of 519 ng/mL. For the same compound, the concentration at 2 h ([1]; male, Wistar, rat, plasma, oral, 100 mg/kg, Table S7, 100 mg/kg PO, 2 h, mean of Rat#7-12, read-out: Plasma concentration, Mean) was 602 ng/mL, the concentration at 4 h ([1]; male, Wistar, rat, plasma, oral, 100 mg/kg, Table S7, 100 mg/kg PO, 4 h, mean of Rat#7-12) was 384 ng/mL and the concentration at 8 h ([1]; male, Wistar, rat, plasma, oral, 100 mg/kg, Table S7, 100 mg/kg PO, 8 h, mean of Rat#7-12) was 109 ng/mL.
